According to the supplement of paper PMC5579334:
± gives the standard deviation of the averaged measurements.

Columns and labels:
[1] = test system: HSC1 (primary human Schwann cells); test: drug sensitivity score (DSS, CellTiter-Glo viability, 72 h) (DSS (dimensionless)); higher = more sensitive; extreme values may be limits of the assay
Procedure, shortened: (§1)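 MPNST cell lines and primary human Schwann cells (750–1000 cells per well) went into 384-well plates preprinted with each compound at five concentrations in 10-fold steps. Plates were incubated 72 h at 37 °C, 5% CO2. Viability was read as CellTiter-Glo ATP luminescence, scaled between vehicle and positive-control wells, with duplicates averaged where present. Percent inhibition is at the top concentration; drug sensitivity score and relative IC50 (censored at top concentration) come from four-parameter logistic fits.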

[2] = test system: HSC2 (primary human Schwann cells); test: as above
Procedure, shortened: as §1

[3] = test system: S1507-2; test: as above
Procedure, shortened: as §1

[4] = test system: S462; test: as above
Procedure, shortened: as §1

[5] = test system: ST8814; test: as above
Procedure, shortened: as §1

[6] = test system: STS26T; test: as above
Procedure, shortened: as §1

[7] = test system: HSC1 (primary human Schwann cells); test: drug sensitivity score (DSS, CellTox-Green cytotoxicity, 72 h) (DSS (dimensionless)); higher = more cytotoxic; extreme values may be limits of the assay
Procedure, shortened: (§2)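 MPNST cell lines and primary human Schwann cells were incubated 72 h at 37 °C in 384-well plates holding five 10-fold compound dilutions. CellTox-Green was added before seeding at a final 1:1000 dilution and reported fluorescence from DNA released by disrupted cells. Signals were scaled to vehicle and positive-control wells, and cultures failing plate quality control were dropped. Drug sensitivity score and relative IC50 come from four-parameter logistic fits, with IC50 censored at the top concentration.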

[8] = test system: HSC2 (primary human Schwann cells); test: as above
Procedure, shortened: as §2

[9] = test system: S1507-2; test: as above
Procedure, shortened: as §2

[10] = test system: ST8814; test: as above
Procedure, shortened: as §2

[11] = test system: STS26T; test: as above
Procedure, shortened: as §2

[12] = test system: HSC1 (primary human Schwann cells); test: % inhibition of CellTiter-Glo viability at highest tested concentration (72 h), relative to DMSO and benzethonium chloride controls; higher = more inhibition
Procedure, shortened: as §1

[13] = test system: HSC2 (primary human Schwann cells); test: as above
Procedure, shortened: as §1

[14] = test system: S1507-2; test: as above
Procedure, shortened: as §1

[15] = test system: S462; test: as above
Procedure, shortened: as §1

[16] = test system: ST8814; test: as above
Procedure, shortened: as §1

[17] = test system: STS26T; test: as above
Procedure, shortened: as §1

[18] = test system: HS-PSS; test: drug sensitivity score (DSS, CellTiter-Glo viability, 72 h) (DSS (dimensionless)); higher = more sensitive; extreme values may be limits of the assay
Procedure, shortened: as §1

[19] = test system: HS-Sch-2; test: as above
Procedure, shortened: as §1

[20] = test system: YST-1; test: as above
Procedure, shortened: as §1

[21] = test system: HS-PSS; test: drug sensitivity score (DSS, CellTox-Green cytotoxicity, 72 h) (DSS (dimensionless)); higher = more cytotoxic; extreme values may be limits of the assay
Procedure, shortened: as §2

[22] = test system: HS-PSS; test: % inhibition of CellTiter-Glo viability at highest tested concentration (72 h), relative to DMSO and benzethonium chloride controls; higher = more inhibition
Procedure, shortened: as §1

[23] = test system: HS-Sch-2; test: as above
Procedure, shortened: as §1

Compound | drug sensitivity score [1] | drug sensitivity score [2] | drug sensitivity score [3] | drug sensitivity score [4] | drug sensitivity score [5] | drug sensitivity score [6] | drug sensitivity score [7] | drug sensitivity score [8] | drug sensitivity score [9] | drug sensitivity score [10] | drug sensitivity score [11] | % inhibition [12] [%] | % inhibition [13] [%] | % inhibition [14] [%] | % inhibition [15] [%] | % inhibition [16] [%] | % inhibition [17] [%] | drug sensitivity score [18] | drug sensitivity score [19] | drug sensitivity score [20] | drug sensitivity score [21] | % inhibition [22] [%] | % inhibition [23] [%]
C[C@H]1C=C2C(=O)O[C@H]3CC[C@@H](C1)[C@@]23O [Galiellalactone] (max concentration tested 50000 nM) | 11.2 | 7.95 | 7.75 ± 0.57 | 9.23 ± 1.4 | 7.08 | 9.38 | 0.367 | 0 | 2.69 ± 1.4 | 0 | 2.26 | 97.6 | 98.5 | 92.8 ± 14 | 100 ± 2.5 | 88.9 | 101 | – | – | – | – | – | –
CS(=O)(=O)N1CCN(Cc2cc3nc(-c4cccc5[nH]ncc45)nc(N4CCOCC4)c3s2)CC1 [Pictilisib] (max concentration tested 10000 nM) | 7.89 | 7.76 | 13.4 ± 2.3 | 6.98 ± 0.18 | 9.07 | 13.3 | 0 | 0 | 0.342 ± 0.48 | 1.86 | 0 | 78.7 | 83.3 | – | 68.53 ± 0.23 | – | – | 5.78 | 4.35 | 14.6 | 0 | 52.1 | 51
Cc1c(C(=O)Nc2ccc(N3C[C@@H](C)O[C@@H](C)C3)nc2)cccc1-c1ccc(OC(F)(F)F)cc1 [Erismodegib] (max concentration tested 10000 nM) | 0 | 0 | 0.871 ± 1.2 | 0 | 0 | 0.451 | 1.48 | 4.95 | 14.8 ± 20 | 0 | 0 | 9.09 | 8.65 | 9.49 ± 1.4 | 13.2 ± 2.2 | 1.35 | 16.9 | – | – | – | – | – | –
CC1=C2C[C@H]3[C@@H](CC=C4C[C@@H](O)CC[C@@]43C)[C@@H]2CC[C@]12O[C@@H]1C[C@H](C)CN[C@H]1[C@H]2C [Cyclopamine] (max concentration tested 10000 nM) | 0 | 0 | 0.114 ± 0.16 | 0 | 0 | 0 | 0 | 0 | 0.06 ± 0.085 | 0 | 0 | 9.19 | 7.88 | 11.5 ± 3 | -1.34 ± 2.9 | -4.3 | 4.33 | – | – | – | – | – | –
CC(=O)O[C@]1(C(C)=O)CC[C@H]2[C@@H]3C=C(C)C4=CC(=O)CC[C@]4(C)[C@H]3CC[C@@]21C [Megestrol] (max concentration tested 10000 nM) | 0 | 0 | 0 | 0 | 0 | 0 | 0 | 0 | 0 | 0 | 0 | 9.41 | 8.15 | -2.04 ± 5.3 | 2.52 ± 6.2 | 4.75 | 1.5 | – | – | – | – | – | –
COC1=C2C[C@@H](C)C[C@H](OC)[C@H](O)[C@@H](C)/C=C(\C)[C@H](OC(N)=O)[C@@H](OC)/C=C\C=C(/C)C(=O)NC(=CC1=O)C2=O [Geldanamycin] (max concentration tested 10000 nM) | 16.7 | 16.7 | 8.65 ± 0.52 | 15.8 ± 0.19 | 12 | 12.3 | 20.4 | 20.2 | 5.24 ± 1.8 | 2.65 | 8.09 | 96.7 | 94.7 | 97.21 ± 0.53 | 98.4 ± 1.8 | 90.6 | 94.2 | – | – | – | – | – | –
CC(C)NC[C@@H](C(=O)N1CCN(c2ncnc3c2[C@H](C)C[C@H]3O)CC1)c1ccc(Cl)cc1 [GDC-0068] (max concentration tested 10000 nM) | 0.374 | 0 | 2.03 ± 1 | 0.195 ± 0.28 | 0.785 | 5.77 | 0 | 0 | 0 | 0 | 0 | 21.6 | 6.99 | 31.5 ± 4.2 | 13.5 ± 7.9 | 17.1 | 44 | – | – | – | – | – | –
CCN(CC)CCCC(C)Nc1c2ccc(Cl)cc2nc2ccc(OC)cc12 (configuration not stated) [Mepacrine aq] (max concentration tested 50000 nM) | 18.6 | 18 | 19.92 ± 0.17 | 20.5 ± 1.6 | 20.5 | 18.9 | 20.7 | 19.6 | 23.5 ± 4.6 | 14.7 | 15.8 | 95.9 | 95 | 98.51 ± 0.17 | 95.06 ± 0.61 | 96.3 | 96.5 | – | – | – | – | – | –
CCC(C)(C)C(=O)O[C@H]1C[C@@H](C)C=C2C=C[C@H](C)[C@H](CC[C@@H]3C[C@@H](O)CC(=O)O3)[C@H]21 [Simvastatin] (max concentration tested 10000 nM) | 8.22 | 9.94 | 0.00035 ± 0.00049 | 2.409 ± 0.0062 | 0.23 | 0.448 | – | – | – | – | – | – | – | – | – | – | – | 3.55 | 0 | 0 | – | – | –
Cc1ccc(C(=O)Nc2ccc(CN3CCN(C)CC3)c(C(F)(F)F)c2)cc1C#Cc1cnc2cccnn12 [Ponatinib] (max concentration tested 1000 nM) | 6.62 | 6.49 | 6.1 ± 0.6 | 5.51 ± 0.34 | 8.31 | 3.91 | – | – | – | – | – | – | – | – | – | – | – | 2.2 | 5.57 | 4.76 | – | – | –
